# In PMC11374953, “Heteroaryl derivatives of suvorexant as OX1R selective PET ligand candidates: Cu-mediated ^18F-fluorination of boroxines, in vitro and initial in vivo evaluation” (EJNMMI Research, 2024):
# Assays:
# human OX1R = target: T1, human OX1R (Homo sapiens, UniProt O43613); design: method as in PMID 32669442; conditions: data from previous work, cited from earlier work
# T1 construct: host or cells: HEK293T
# T1 sequence (O43613 1-425): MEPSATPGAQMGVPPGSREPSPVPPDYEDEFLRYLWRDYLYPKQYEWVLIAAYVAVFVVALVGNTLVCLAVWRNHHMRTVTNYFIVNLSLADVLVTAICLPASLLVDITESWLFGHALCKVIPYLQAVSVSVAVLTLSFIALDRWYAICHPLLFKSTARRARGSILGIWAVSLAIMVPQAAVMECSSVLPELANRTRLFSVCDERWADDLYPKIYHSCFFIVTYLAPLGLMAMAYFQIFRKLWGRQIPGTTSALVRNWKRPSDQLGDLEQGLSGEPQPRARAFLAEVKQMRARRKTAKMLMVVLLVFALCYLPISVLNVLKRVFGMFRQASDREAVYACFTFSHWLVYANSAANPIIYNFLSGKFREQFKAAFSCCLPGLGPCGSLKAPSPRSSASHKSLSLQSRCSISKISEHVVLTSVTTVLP
# human OX2R = target: T2, human OX2R (Homo sapiens, UniProt O43614); design: method as in PMID 32669442; conditions: HEK293T homogenates; data from previous work; read-out: Ki values (nM ± SEM) hOX2R; cited from earlier work
# T2 construct: host or cells: HEK293T
# T2 sequence (O43614 1-444): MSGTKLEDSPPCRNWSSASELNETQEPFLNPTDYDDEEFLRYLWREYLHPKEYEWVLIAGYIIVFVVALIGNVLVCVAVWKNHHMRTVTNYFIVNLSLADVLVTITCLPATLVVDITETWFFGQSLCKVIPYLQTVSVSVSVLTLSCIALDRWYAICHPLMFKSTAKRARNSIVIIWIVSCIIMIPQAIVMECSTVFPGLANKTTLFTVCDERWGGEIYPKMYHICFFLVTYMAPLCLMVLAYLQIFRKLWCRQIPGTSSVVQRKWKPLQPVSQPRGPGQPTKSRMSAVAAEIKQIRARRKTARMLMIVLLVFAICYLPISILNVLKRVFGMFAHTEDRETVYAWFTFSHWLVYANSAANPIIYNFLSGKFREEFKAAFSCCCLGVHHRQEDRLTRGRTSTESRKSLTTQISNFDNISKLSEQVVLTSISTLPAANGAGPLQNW
# [1] = Partition coefficient logD7.4 (n-octanol/PBS); assay type: physicochemical; conditions: n-octanol/PBS pH 7.4, mean ± SD
# Protocol: Phosphate-buffered saline (PBS, 480 µL, pH 7.4) and n-octanol (500 µL) were placed in an Eppendorf tube. The radioligand (30–50 kBq, [^18F]1c or [^18F]1f) in PBS (20 µL) was added to the tube, vortexed for 1 min and centrifuged (20,000g, 1 min). Three samples (100 µL) from each layer were collected and measured by a γ-counter (Wallac Wizard 1470, PerkinElmer, USA). After the average cpm values from the triplicate measurements of each layer were calculated, the logD7.4 was determined as the logarithm of the ratio of n-octanol (mean cpm) to PBS (mean cpm). The mean logD7.4 value ± standard deviation was determined by at least three independent experiments each performed in triplicates.
# [2] = Plasma protein binding (MicroSpin G-50 columns); assay type: in vitro ADME; conditions: human plasma, 37 °C, read-out: plasma protein binding (PPB) (converted)
# Protocol: The radiotracer (100–200 kBq, [^18F]1c or [^18F]1f) in PBS (2 µL) was incubated with human plasma (100 µL) at 37 °C for 10 min. After preconditioning of the microcolumns according to the instructions of the manufacturer (illustra MicroSpin G-50 columns from GE Healthcare), a sample (40 µL) of was applied to the resin. The microspin tubes were centrifuged (2000g, 2 min) and both, eluate and resin were measured by a γ-counter (Wallac Wizard 1470, PerkinElmer, USA). The PPB was calculated as percentage of bound ligand (cpm of resin) from the total amount of radioactivity (sum of cpm of resin and eluate). Samples from incubation of the radiotracer in saline instead of plasma served as negative control. The mean PPB value was determined from at least two independent experiments each performed in triplicate.
# [3] = Radioligand stability in human plasma and human serum; assay type: in vitro ADME; conditions: 37 °C, up to 120 min, radio-HPLC
# Protocol: (§1) The radioligand (1–2 MBq, [^18F]1c or [^18F]1f) in PBS (20 µL) was incubated with human serum, human plasma or rat plasma (400 µL) at 37 °C. Samples (50 µL) were taken at 5, 10, 15, 30, 60 and 120 min, mixed with aqueous TFA (10%, 50 µL) and centrifuged (20,000g, 2 min). The supernatant (20 µL) was analyzed by radio-HPLC.
# [4] = Radioligand stability in rat plasma; assay type: in vitro ADME; conditions: 37 °C, up to 120 min, radio-HPLC
# Protocol: as §1
# [5] = Dynamic small animal PET imaging of the rat brain; assay type: in vivo
# Protocol: Small animal PET experiments in rats were performed to allow for an initial comparison in single animals that were injected with [^18F]1c or [^18F[1f alone, after preinjection of suvorexant (1 mg/kg), and after pretreatment with cyclosporine A (25 mg/kg) (Fig. 3). […] Therefore, to elucidate the P-gp-mediated transport of the compounds, specific experiments were performed.
# Fig. 3 Time-activity curves and horizontal PET slices of the rat brain after injection of [^18F]1c (A, C) and [^18F]1f (B, D). Single animals were injected with the tracer alone (“control”, blue) compared to animals preinjected with suvorexant (1 mg/kg, 15 min prior to tracer injection, each n = 1; “blocking”, red) or cyclosporine A (25 mg/kg, 30 min prior to tracer injection, each n = 1; green)
# Ten- to 13-week-old female CD Sprague–Dawley rats (250–300 g, Charles River) were housed with free access to standard rat chow (Purina) and water at all times. Dynamic small animal PET scans were performed on an Inveon™ microPET scanner (Siemens Healthineers AG, Erlangen, Germany). All rats were continuously anesthetized using isoflurane (2–3% in oxygen, 0.8 L/min) and placed on a heating pad (37 °C) during the PET scan. Rats were injected intravenously in the tail vein with the radioligand in saline (5–15 MBq in 200–300 µL, [^18F]1c or [^18F]1f). Pretreatment with suvorexant (1 mg/kg, 15 min prior to tracer injection) or cyclosporine A (25 mg/kg, […] to tracer injection) was done intravenously. Dynamic PET scans were acquired from 0 to 60 min p.i. and consisted of 23 frames with increasing duration (12 × 10 s, 3 × 1 min, 5 × 5 min and 3 × 10 min). Subsequently, an attenuation scan with a rotating Co-57 point source was performed. The obtained dynamic emission images were subjected to an attenuation and decay correction. After the iterative maximum a posteriori (MAP) estimation for the image reconstruction, regions of interest (ROIs) were drawn for the whole brain. Computational processing of the PET scans was done with the software PMOD (PMOD Technologies LLC). The data obtained were finally converted into values expressed as percent of injected dose per gram (%ID/g).
# [6] = cited from earlier work
smiles,measurement,setting,value
CC[C@H](C)[C@H]1CN(c2nc3cc(Cl)ccc3o2)CCCN1C(=O)c1cc(C)ccc1-n1nccn1 [JH112],Ki,"human OX1R; HEK293T membranes, read-out: Ki values (nM ± SEM) hOX1R",0.72 ± 0.08 nM
same,OX1R selectivity Ki(hOX2R)/Ki(hOX1R),human OX1R; Ki for OX2R divided by Ki for OX1R,75
same,Ki,human OX2R,54 ± 7 nM
"CC[C@H](C)[C@H]1CN(c2nc3ccc([18F])cc3s2)CCCN1C(=O)c1cc(C)ccc1-n1nccn1 [[^18F]1f, {(S)-2-[(S)-sec-butyl]-4-(6-[^18F]fluorobenzo[d]thiazol-2-yl)-1,4-diazepan-1-yl}[5-methyl-2-(2H-1,2,3-triazol-2-yl)phenyl]methanone]",logD,[1],2.37
same,fraction unbound at 10 min,[2],0.23
same,stability in human plasma,[3],stable over 120 min
same,stability in human serum,[3],stable over 120 min
same,stability in rat plasma,[4],stable over 120 min
same,brain uptake after pretreatment with cyclosporine A,"[5]; cyclosporine A 25 mg/kg i.v. prior to tracer, n = 1",0.18 %ID/g
same,brain uptake after preinjection of suvorexant,"[5]; suvorexant 1 mg/kg i.v. 15 min prior to tracer, n = 1",not affected
same,time of maximum brain uptake p.i.,[5]; tracer alone i.v.,24 s
same,maximum brain uptake,"[5]; tracer alone i.v., whole brain, n = 1",0.15 %ID/g
Cc1ccc(-n2nccn2)c(C(=O)N2CCN(c3nc4cc(Cl)ccc4o3)CC[C@H]2C)c1 [suvorexant],protein-bound fraction in the blood,[6],> 99%
